Data as given in US9624200B2, “Therapeutic piperazines” (DART NEUROSCIENCE (CAYMAN) LTD., priority 2006, dated 2017).

Test system: PDE4 from human U-937 cells
Assay: PDE4 Inhibition Assay
Type: biochemical
Settings: 1 μM cAMP, [3H]-cAMP, read-out: Potency Class (Inhibitory Concentration) in the PDE4 assay
Method: PDE4 from human U-937 cells was used (see T. J. Torphy, et al., J. Pharmacol. Exp. Ther., 1992, 263, 1195-1205). Test compound at various concentration and/or vehicle was preincubated with 2 μg/ml enzyme in Tris-HCl buffer pH 7.5 for 15 minutes at 25° C. The reaction was initiated by addition of 1 1 μM cAMP and 0.01 1 μM [^3H]-cAMP for another 20 minute incubation period and terminated at 100° C. The resulting [^3H]-AMP was converted to [^3H]-adenosine by addition of snake venom nucleotidase and separated by AG1-X2 resin. An aliquot was removed and counted to determine the amount of [^3H]-adenosine formed. Results were converted to percent inhibition and IC so determined using XLfit from IDBS (ID Business Solutions Ltd., 2 Occam Court, Surrey Research Park, Guildford, Surrey, GU2 7QB UK).
Representative compounds of the present invention were tested and found to have significant PDE4 inhibition in this assay.

IC50 [nM] | Structure (SMILES)
> 1000 | COc1ccc(N2CCN(C(=O)c3ccc(O)c(O)c3)[C@@H](Cc3ccccc3)C2)cc1OC1CCCC1 [Compound 286, (S)-(2-benzyl-4-(3-(cyclopentyloxy)-4-methoxyphenyl)piperazin-1-yl)(3,4-dihydroxyphenyl)methanone]
< 200 | CCc1nn(C2CCCC2)c2cc(N3CCN(C(=O)Cc4nc(C)n[nH]4)[C@@H](Cc4ccccc4)C3)ccc12 [Compound 380, (S)-1-(2-benzyl-4-(1-cyclopentyl-3-ethyl-1H-indazol-6-yl)piperazin-1-yl)-2-(3-methyl-1H-1,2,4-triazol-5-yl)ethanone]
< 200 | Cc1nc(CC(=O)N2CCN(c3ccc(OC(F)F)c(OC4CCCC4)c3)C[C@@H]2CC(C)C)n[nH]1 [Compound 374, (S)-1-(4-(3-(cyclopentyloxy)-4-(difluoromethoxy)phenyl)-2-isobutylpiperazin-1-yl)-2-(5-methyl-1H-1,2,4-triazol-3-yl)ethanone]
200 to 1000 | COc1ccc(N2CCN(C(=O)Cc3cncn3C)[C@@H](Cc3ccccc3)C2)cc1OC1CCCC1 [Compound 318, (S)-1-(2-benzyl-4-(3-(cyclopentyloxy)-4-methoxyphenyl)piperazin-1-yl)-2-(1-methyl-1H-imidazol-5-yl)ethanone]
> 1000 | CCc1nn(C2CCC2)c2cc(N3CCN(CCC(N)=O)[C@@H](Cc4ccccc4)C3)ccc12 [Compound 276, (S)-3-(2-benzyl-4-(1-cyclobutyl-3-ethyl-1H-indazol-6-yl)piperazin-1-yl)propanamide]
< 200 | COc1ccc(N2CCN(C(=O)Cc3cccnc3)[C@@H](Cc3ccccc3)C2)cc1OC1CCCC1 [Compound 385, (S)-1-(2-benzyl-4-(3-(cyclopentyloxy)-4-methoxyphenyl)piperazin-1-yl)-2-(pyridin-3-yl)ethanone]
> 1000 | COc1ccc(N2CCN(C(=O)C(C)C)[C@@H](Cc3ccccc3)C2)cc1OC1CCCC1 [Compound 243, (S)-1-(2-benzyl-4-(3-(cyclopentyloxy)-4-methoxyphenyl)piperazin-1-yl)-2-methylpropan-1-one]
200 to 1000 | COc1ccc(N2CCN(C(=O)Cc3n[nH]c(C)n3)[C@@H](CC(C)C)C2)cc1OC(C)C [Compound 377, (S)-1-(2-isobutyl-4-(3-isopropoxy-4-methoxyphenyl)piperazin-1-yl)-2-(5-methyl-1H-1,2,4-triazol-3-yl)ethanone]
200 to 1000 | CC(C)C[C@H]1CN(c2ccc(OC(F)F)c(OCC3CC3)c2)CCN1C(=O)Cc1c[nH]cn1 [Compound 365, (S)-1-(4-(3-(cyclopropylmethoxy)-4-(difluoromethoxy)phenyl)-2-isobutylpiperazin-1-yl)-2-(1H-imidazol-4-yl)ethanone]
200 to 1000 | COc1ccc(N2CCN(C(=O)Cc3ncccn3)[C@@H](Cc3ccccc3)C2)cc1OC(C)C [Compound 343, (S)-1-(2-benzyl-4-(3-isopropoxy-4-methoxyphenyl)piperazin-1-yl)-2-(pyrimidin-2-yl)ethanone]
> 1000 | COc1ccc(N2CCN(C(=O)CCc3cnc[nH]3)[C@@H](Cc3ccccc3)C2)cc1OC1CCCC1 [Compound 239, (S)-1-(2-benzyl-4-(3-(cyclopentyloxy)-4-methoxyphenyl)piperazin-1-yl)-3-(1H-imidazol-5-yl)propan-1-one]
> 1000 | CCc1nn(C2CCC2)c2cc(N3CCN(C(=O)Cc4ccccn4)[C@@H](Cc4ccccc4)C3)ccc12 [Compound 352, (S)-1-(2-benzyl-4-(1-cyclobutyl-3-ethyl-1H-indazol-6-yl)piperazin-1-yl)-2-(pyridin-2-yl)ethanone]
< 200 | COc1ccc(N2CCN(C(=O)Cc3ncccn3)[C@@H](Cc3ccccc3)C2)cc1OC1CCCC1 [Compound 388, (S)-1-(2-benzyl-4-(3-(cyclopentyloxy)-4-methoxyphenyl)piperazin-1-yl)-2-(pyrimidin-2-yl)ethanone]
> 1000 | COc1ccc(N2CCN(C(=O)Cn3ccnn3)[C@@H](Cc3ccccc3)C2)cc1OC1CCCC1 [Compound 334, (S)-1-(2-benzyl-4-(3-(cyclopentyloxy)-4-methoxyphenyl)piperazin-1-yl)-2-(1H-1,2,3-triazol-1-yl)ethanone]
> 1000 | CCc1nn(C2CCC2)c2cc(N3CCN(C(=O)Cc4ncccn4)[C@@H](Cc4ccccc4)C3)ccc12 [Compound 353, (S)-1-(2-benzyl-4-(1-cyclobutyl-3-ethyl-1H-indazol-6-yl)piperazin-1-yl)-2-(pyrimidin-2-yl)ethanone]
> 1000 | COc1ccc(N2CCN(Cc3cccc(O)c3)[C@@H](Cc3ccccc3)C2)cc1OC1CCCC1 [Compound 361]
< 200 | CCc1nn(C2CCC2)c2cc(N3CCN(C(=O)Cc4n[nH]c(N)n4)[C@@H](Cc4ccccc4)C3)ccc12 [Compound 355, (S)-2-(5-amino-1H-1,2,4-triazol-3-yl)-1-(2-benzyl-4-(1-cyclobutyl-3-ethyl-1H-indazol-6-yl)piperazin-1-yl)ethanone]
< 200 | COc1ccc(N2CCN(C(=O)Cc3cn(C)cn3)[C@@H](Cc3ccccc3)C2)cc1OC1CCCC1 [Compound 317, (S)-1-(2-benzyl-4-(3-(cyclopentyloxy)-4-methoxyphenyl)piperazin-1-yl)-2-(1-methyl-1H-imidazol-4-yl)ethanone]
< 200 | COc1ccc(N2CCN(C(=O)C3CNC(=O)N3)[C@@H](Cc3ccccc3)C2)cc1OC1CCCC1 (stereo partly drawn) [Compound 281, 4-((S)-2-benzyl-4-(3-(cyclopentyloxy)-4-methoxyphenyl)piperazine-1-carbonyl)imidazolidin-2-one]
> 1000 | COc1ccc(N2CCN(C(=O)[C@@H]3CCC(=O)O3)[C@@H](Cc3ccccc3)C2)cc1OC1CCCC1 [Compound 295, (S)-5-((S)-2-benzyl-4-(3-(cyclopentyloxy)-4-methoxyphenyl)piperazine-1-carbonyl)dihydrofuran-2 (3H)-one]
> 1000 | CCc1nn(C(C)C)c2cc(N3CCN(C(C)=O)[C@@H](Cc4ccccc4)C3)ccc12 [Compound 379, (S)-1-(2-benzyl-4-(3-ethyl-1-isopropyl-1H-indazol-6-yl)piperazin-1-yl)ethanone]
< 200 | COc1ccc(N2CCN(C(C)=O)[C@@H](Cc3cccc(C)c3)C2)cc1OC1CCCC1 [Compound 248, (S)-1-(4-(3-(cyclopentyloxy)-4-methoxyphenyl)-2-(3-methylbenzyl)piperazin-1-yl)ethanone]
< 200 | CCc1nn(C(C)C)c2cc(N3CCN(C(=O)Cc4nc(C)n[nH]4)[C@@H](Cc4ccccc4)C3)ccc12 [Compound 381, (S)-1-(2-benzyl-4-(3-ethyl-1-isopropyl-1H-indazol-6-yl)piperazin-1-yl)-2-(3-methyl-1H-1,2,4-triazol-5-yl)ethanone]
> 1000 | COc1ccc(N2CCN(C(=O)Cc3sc(C)nc3C)[C@@H](Cc3ccccc3)C2)cc1OC1CCCC1 [Compound 298, (S)-1-(2-benzyl-4-(3-(cyclopentyloxy)-4-methoxyphenyl)piperazin-1-yl)-2-(2,4-dimethylthiazol-5-yl)ethanone]

Structure (SMILES) | IC50 [nM]
COc1ccc(N2CCN(C(=O)Cc3n[nH]c([N+](=O)[O-])n3)[C@@H](Cc3ccccc3)C2)cc1OC1CCC1 [Compound 338, (S)-1-(2-benzyl-4-(3-cyclobutoxy-4-methoxyphenyl)piperazin-1-yl)-2-(5-nitro-1H-1,2,4-triazol-3-yl)ethanone] | 200 to 1000
Cc1nc(CC(=O)N2CCN(c3ccc(OC(F)F)c(OC4CCC4)c3)C[C@@H]2Cc2ccccc2)n[nH]1 [Compound 345, (S)-1-(2-benzyl-4-(3-cyclobutoxy-4-(difluoromethoxy)phenyl)piperazin-1-yl)-2-(5-methyl-1H-1,2,4-triazol-3-yl)ethanone] | < 200
CNCC(=O)N1CCN(c2ccc(OC)c(OC3CCC3)c2)C[C@@H]1Cc1ccccc1 [Compound 350, (S)-1-(2-benzyl-4-(3-cyclobutoxy-4-methoxyphenyl)piperazin-1-yl)-2-(methylamino)ethanone] | > 1000
COc1ccc(N2CCN(C(=O)Cc3c[nH]cn3)[C@@H](CC(C)C)C2)cc1OC1CCC1 [Compound 367, (S)-1-(4-(3-cyclobutoxy-4-methoxyphenyl)-2-isobutylpiperazin-1-yl)-2-(1H-imidazol-4-yl)ethanone] | < 200
COc1ccc(N2CCN(C(=O)Cc3cn(C)cn3)[C@@H](CC(C)C)C2)cc1OC1CCC1 [Compound 369, (S)-1-(4-(3-cyclobutoxy-4-methoxyphenyl)-2-isobutylpiperazin-1-yl)-2-(1-methyl-1H-imidazol-4-yl)ethanone] | 200 to 1000
COc1ccc(N2CCN(C(=O)Cc3ccccn3)[C@@H](Cc3ccccc3)C2)cc1OC1CCC1 [Compound 342, (S)-1-(2-benzyl-4-(3-cyclobutoxy-4-methoxyphenyl)piperazin-1-yl)-2-(pyridin-2-yl)ethanone] | < 200
COc1ccc(N2CCN(C(=O)Cc3n[nH]c(N)n3)[C@@H](Cc3ccccc3)C2)cc1OC1CCC1 [Compound 339, (S)-2-(5-amino-1H-1,2,4-triazol-3-yl)-1-(2-benzyl-4-(3-cyclobutoxy-4-methoxyphenyl)piperazin-1-yl)ethanone] | < 200
COc1ccc(N2CCN(C(=O)Cc3c[nH]cn3)[C@@H](Cc3ccccc3)C2)cc1OC1CCC1 [Compound 303, (S)-1-(2-benzyl-4-(3-cyclobutoxy-4-methoxyphenyl)piperazin-1-yl)-2-(1H-imidazol-4-yl)ethanone] | < 200
COc1ccc(N2CCN(C(=O)CC(=O)O)[C@@H](Cc3ccccc3)C2)cc1OC1CCC1 [Compound 258, (S)-3-(2-benzyl-4-(3-cyclobutoxy-4-methoxyphenyl)piperazin-1-yl)-3-oxopropanoic acid] | < 200
